According to US20160082015A1, “METHODS, COMPOSITIONS AND KITS FOR PROMOTING MOTOR NEURON SURVIVAL AND TREATING AND DIAGNOSING NEURODEGENERATIVE DISORDERS” (PRESIDENT AND FELLOWS OF HARVARD COLLEGE, priority 2013, published 2016):
“Also recorded” adds a separate entry of the source.

Tests used:
[1] = system: SOD1^G93A protein; experiment: SOD1 protein levels by Western blotting and single cell imaging; type: cell-based, human
Description: (§1) In FIG. 5A cultures grown for 21 days in the indicated conditions were analyzed for levels of human SOD1 protein. The antibody used was specific for human SOD1, as is seen by the lack of staining on wild-type mouse MNs (HB9::GFP). When analyzed on day 21, levels of mutant SOD1^G93A protein, but not wt SOD1 protein, were decreased when cells were treated with kenpaullone in the absence of trophic factors. When analyzed on day 21, SOD1^G93A protein, but not wt SOD1 protein, was decreased when cultures were treated with kenpaullone in the presence of trophic factors as well (FIG. 5B). […] By this analysis, again on day 21, the average amount of SOD1 per MN was decreased by kenpaullone treatment in both +TF and −TF conditions. Scale bar represents 50 μm (FIG. 5C). Data are presented as mean±SEM. * p<0.05, *** p<0.001 (Student's t test, two-tailed).
Immunostaining was carried out using standard protocols (Makhortova et al., 2011). […]
Since the additional death undergone by the SOD1^G93A/HB9::GFP MNs seems likely to relate to their expression of high levels of SOD1^G93A protein, one possibility is that kenpaullone could act in part by reducing those levels. Kenpaullone was added to cultures on day 4, and the levels of mutant SOD1^G93A protein were analyzed by Western blotting on day 21 (FIGS. 5A and 5B). […]

[2] = target: HGK (Homo sapiens, UniProt O95819); experiment: Kinase activity assay with MBP substrate; type: biochemical; conditions: recombinant kinase, myelin basic protein substrate
From the text: (§2) The enzymatic reaction was stopped with Laemmli buffer and samples were separated in a polyacrylamide gel. Finally, the gel was exposed to a Storage Phosphor Screen (GE Healthcare) and scanned in a Typhoon 9400 scanner (GE Healthcare). Signal density was estimated with Quantity One software (Bio-Rad).

[3] = target: T1, MLK3 (Homo sapiens, UniProt Q16584); experiment: Kinase activity assay with MBP substrate; type: biochemical; conditions: recombinant kinase, myelin basic protein substrate
T1 construct: purchased SignalChem
From the text: as §2

[4] = system: wild-type human SOD1; experiment: SOD1 protein levels by Western blotting; type: cell-based; conditions: wtSOD1/Hb9::GFP cultures
Description: as §1
Since the additional death undergone by the SOD1^G93A/HB9::GFP MNs seems likely to relate to their expression of high levels of SOD1^G93A protein, one possibility is that kenpaullone could act in part by reducing those levels. Kenpaullone was added to cultures on day 4, and the levels of mutant SOD1^G93A protein were analyzed by Western blotting on day 21 (FIGS. 5A and 5B). […] The endogenous mouse SOD1 protein was not affected in either HB9::GFP or SOD1^G93A/HB9::GFP cultures (data not shown). […]

[5] = system: Hb9:GFP MNs; experiment: MN survival in co-culture with wild-type or SOD1^G93A astrocytes; type: cell-based, mouse; conditions: nine days of compound treatment, trophic factors present
Description: FIGS. 3A and 3B show line graphs showing effects of kenpaullone and GSK-3 inhibitor VIII on MN death induced by treatment with a PI3K inhibitor. LY294002 was added to cultures on day 4, with or without concurrent treatment with 10 μM kenpaullone or 10 μM GSK-3 inhibitor VIII. Cells were fixed on day 7 for survival analysis. Survival is measured with respect to cells treated with DMSO alone. FIG. 3C is a bar graph showing that Kenpaullone also blocks death of MNs accelerated by co-culture with SOD1^G93A astrocytes. Hb9:GFP MNs were FACS sorted and plated on a confluent monolayer of wild-type or SOD1^G93A astrocytes. Kenpaullone was added to cultures 24 hrs later and was refreshed every three days by replacing half of the old medium with fresh medium containing IX concentration of the compound. Cells were fixed after nine days of compound treatment and MN survival was determined. Trophic factors were present throughout the experiment. Data are presented as percent survival normalized to that of DMSO treated MNs plated on wild-type astrocytes. Again, kenpaullone was effective in decreasing the extent of death. * p<0.05, ** p<0.01, *** p<0.001 (Student's t test, two-tailed). Data are presented as mean±SEM. […]

[6] = system: SOD1^G93A/HB9::GFP MNs; experiment: MN death induced by PI3K inhibitor LY294002; type: cell-based; conditions: 10 μM co-incubated with LY294002
Description: (§3) FIGS. 3A and 3B show line graphs showing effects of kenpaullone and GSK-3 inhibitor VIII on MN death induced by treatment with a PI3K inhibitor. LY294002 was added to cultures on day 4, with or without concurrent treatment with 10 μM kenpaullone or 10 μM GSK-3 inhibitor VIII. Cells were fixed on day 7 for survival analysis. Survival is measured with respect to cells treated with DMSO alone. FIG. 3C is a bar graph showing that Kenpaullone also blocks death of MNs accelerated by co-culture with SOD1^G93A astrocytes. Hb9:GFP MNs were FACS sorted and plated on a confluent monolayer of wild-type or SOD1^G93A astrocytes. Kenpaullone was added to cultures 24 hrs later and was refreshed every three days by replacing half of the old medium with fresh medium containing IX concentration of the compound. Cells were fixed after nine days of compound treatment and MN survival was determined. Trophic factors were present throughout the experiment. Data are presented as percent survival normalized to that of DMSO treated MNs plated on wild-type astrocytes. Again, kenpaullone was effective in decreasing the extent of death. * p<0.05, ** p<0.01, *** p<0.001 (Student's t test, two-tailed). Data are presented as mean±SEM.
(§4) The PI3K/Akt pathway is well known to regulate neuronal survival including that of MNs (Brunet et al., 2001; Barthélémy et al., 2004). […] The inventors sought to examine if either kenpaullone or a more specific GSK-3 inhibitor (Inhibitor VIII) could protect MNs from death caused by inactivation of PI3K/AKT. […] Thus kenpaullone's effects are not restricted to protection after trophic factor withdrawal.

[7] = system: HB9::GFP MNs; experiment: MN death induced by PI3K inhibitor LY294002; type: cell-based; conditions: 10 μM co-incubated with LY294002
Description: as §3, §4

Sequence of HGK (O95819 whole entry): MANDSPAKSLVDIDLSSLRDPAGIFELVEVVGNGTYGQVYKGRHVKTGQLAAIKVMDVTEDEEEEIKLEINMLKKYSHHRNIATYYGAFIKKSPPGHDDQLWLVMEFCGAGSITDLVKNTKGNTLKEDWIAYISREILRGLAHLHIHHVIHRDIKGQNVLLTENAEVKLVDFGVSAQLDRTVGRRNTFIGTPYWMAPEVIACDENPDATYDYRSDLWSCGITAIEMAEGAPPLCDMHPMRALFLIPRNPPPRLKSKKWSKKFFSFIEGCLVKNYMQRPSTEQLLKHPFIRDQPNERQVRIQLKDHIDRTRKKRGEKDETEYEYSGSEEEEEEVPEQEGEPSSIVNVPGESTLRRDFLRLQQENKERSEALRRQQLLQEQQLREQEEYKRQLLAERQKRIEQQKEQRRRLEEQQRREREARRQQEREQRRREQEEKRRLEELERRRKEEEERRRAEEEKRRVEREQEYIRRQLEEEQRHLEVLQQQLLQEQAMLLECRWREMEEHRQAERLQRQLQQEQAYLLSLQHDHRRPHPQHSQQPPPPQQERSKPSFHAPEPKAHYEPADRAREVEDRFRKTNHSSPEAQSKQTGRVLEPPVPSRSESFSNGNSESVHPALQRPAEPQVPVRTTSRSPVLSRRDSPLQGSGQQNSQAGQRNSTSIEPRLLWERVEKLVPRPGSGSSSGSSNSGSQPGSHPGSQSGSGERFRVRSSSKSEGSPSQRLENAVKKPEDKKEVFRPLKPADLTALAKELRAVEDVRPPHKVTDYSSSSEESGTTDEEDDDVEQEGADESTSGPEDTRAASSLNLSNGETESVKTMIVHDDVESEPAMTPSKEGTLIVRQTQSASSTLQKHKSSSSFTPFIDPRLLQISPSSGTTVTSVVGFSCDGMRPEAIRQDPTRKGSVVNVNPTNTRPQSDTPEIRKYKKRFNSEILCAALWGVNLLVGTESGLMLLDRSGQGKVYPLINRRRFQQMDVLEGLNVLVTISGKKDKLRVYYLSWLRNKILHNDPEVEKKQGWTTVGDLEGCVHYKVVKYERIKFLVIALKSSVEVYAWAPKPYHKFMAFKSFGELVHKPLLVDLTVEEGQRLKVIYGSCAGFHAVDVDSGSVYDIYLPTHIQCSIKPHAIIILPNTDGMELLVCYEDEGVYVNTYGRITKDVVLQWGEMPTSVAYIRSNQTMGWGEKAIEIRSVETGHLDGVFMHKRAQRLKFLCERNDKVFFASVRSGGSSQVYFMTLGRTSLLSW
T1 sequence (Q16584 whole entry): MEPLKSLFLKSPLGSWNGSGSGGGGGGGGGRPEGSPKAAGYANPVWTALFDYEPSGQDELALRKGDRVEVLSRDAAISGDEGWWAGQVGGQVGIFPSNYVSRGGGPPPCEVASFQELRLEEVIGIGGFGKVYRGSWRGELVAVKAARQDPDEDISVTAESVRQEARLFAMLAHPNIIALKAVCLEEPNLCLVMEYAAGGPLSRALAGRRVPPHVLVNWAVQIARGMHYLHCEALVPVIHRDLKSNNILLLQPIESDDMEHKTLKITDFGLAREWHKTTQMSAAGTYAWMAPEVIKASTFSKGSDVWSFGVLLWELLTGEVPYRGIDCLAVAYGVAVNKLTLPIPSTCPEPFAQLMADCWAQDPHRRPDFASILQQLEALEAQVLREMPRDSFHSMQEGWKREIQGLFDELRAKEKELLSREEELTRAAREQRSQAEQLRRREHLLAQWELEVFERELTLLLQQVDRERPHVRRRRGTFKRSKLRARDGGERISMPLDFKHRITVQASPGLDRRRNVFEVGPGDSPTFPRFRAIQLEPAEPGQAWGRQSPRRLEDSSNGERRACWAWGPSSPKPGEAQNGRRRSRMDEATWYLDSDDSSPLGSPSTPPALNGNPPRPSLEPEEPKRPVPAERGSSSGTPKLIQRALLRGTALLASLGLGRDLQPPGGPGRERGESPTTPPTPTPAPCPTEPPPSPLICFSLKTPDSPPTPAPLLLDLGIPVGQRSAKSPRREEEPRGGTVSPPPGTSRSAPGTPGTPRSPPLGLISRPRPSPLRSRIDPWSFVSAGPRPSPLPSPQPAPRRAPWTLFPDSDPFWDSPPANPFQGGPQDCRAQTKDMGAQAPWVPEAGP

## O=C1Cc2c([nH]c3ccc(Br)cc23)-c2ccccc2N1 [Kenpaullone]
[1]; added day 4, Western blotting day 21, with and without trophic factors
  levels of SOD1^G93A protein: sharp decrease
[1]; until sometime after 15 days of treatment
  mutant protein levels, untreated versus treated cultures: no differences
[2]
  HGK activity: inhibited; also recorded: strongly inhibits
[3]
  MLK3 activity: not
[4]
  levels of wild-type human SOD1: no effect
[5]
  MN survival on SOD1^G93A astrocytes: improved survival
  MN survival on wild-type astrocytes: improved survival
[6]
  protection from LY294002-induced MN death: significantly attenuated
[7]
  protection from LY294002-induced MN death: significantly attenuated
